Patent US20220370473A1, “USE OF A BENZODIAZEPINE DERIVATIVE AND METHOD OF TREATMENT OF TRAUMATIC BRAIN INJURY” (CENTRO DE INVESTIGACION Y […] MEDICAMENTOS (CIDEM), priority 2019, published 2022)

Tests used:
Type in all cases: in vivo, Male Wistar rats
p-Akt = assay: Western blotting of p-Akt in brain tissue; conditions: TBI group vs control and TBI+JM-20 groups, p<0.05, FIG. 8
Procedure: (§1) Male Wistar rats (200-250 g), with an average age of 60 days were used, conditioned in boxes with food and water at will. Procedures were performed pursuant to the rules of the Animal Ethics and Welfare Committee UFSM (9426190418).
(§2) TBI was induced through the weight-drop model (MANNIX, R. et al. Chronic Gliosis and Behavioral Deficits in Mice Following Repetitive Mild Traumatic Brain Injury. Journal of Neurosurgery. 2014) A 54 g weight was used released from a 100 cm height freely falling on the animals head. […]
(§3) The Western blot test was performed according to Gerbatin et al (2017) with some adjustments (GERBATIN, R. D. R. et al. Guanosine Protects Against Traumatic Brain Injury-Induced Functional Impairments and Neuronal Loss by Modulating Excitotoxicity, Mitochondrial Dysfunction, and Inflammation. Molecular Neurobiology. 54(10):7585-7596. 2017.). […] The protein concentration of each sample was determined by the bicinchonininc acid protein assay (Thermo Fisher Scientific). […]
(§4) The mouse anti-β-actin antibody (1: 10,000, Santa Cruz Biotechnology, Santa Cruz, Calif., EE. UU.) was dyed as an additional control to the protein load. […] Then the bands were quantified using the Image Lab software (Bio-Rad).

GFAP = assay: Western blotting of GFAP in brain tissue; conditions: cortex and hippocampus; all groups; FIGS. 11 and 12
Procedure: as §1, §2, §3, §4

TBI = assay: Overall assessment in animal models after a TBI; conditions: motor performance; cerebral edema; astrocyte reactivity; microglial activation; pro-survival pathway activation
Procedure: as §1
(§5) TBI was induced through the weight-drop model (MANNIX, R. et al. Chronic Gliosis and Behavioral Deficits in Mice Following Repetitive Mild Traumatic Brain Injury. Journal of Neurosurgery. 2014) A 54 g weight was used released from a 100 cm height freely falling on the animals head. Animals were suspended on aluminum foil, with small cuts to ensure it would break with the impact of the weight allowing for the sudden acceleration of the movement, thus tearing the aluminum foil and falling over a sponge. TBI-induced animals were previously anesthetized with 2% isoflurane. In addition, topical lidocaine was applied to the animals' head to minimize posttraumatic pain (MYCHASIUK, R. et al. A Novel Model of Mild Traumatic Brain Injury for Juvenile Rats. Journal of Visualized Experiments. 2014)

TBI-induced rats [1] = assay: Open field test after weight-drop TBI; conditions: TBI group vs control and TBI+JM-20 group, p<0.05; FIG. 3
Procedure: as §1, §5
Animals were placed in the central area of an open field (56 cm diameter) that had its surface divided into equal parts. The duration of the test was 300 seconds. The number of times animals walked around the quadrants, the number of their exploratory responses (rearings) and their immobility time were analyzed.

TBI-induced rats [2] = assay: Cerebral edema (brain water content, wet-dry method); conditions: 24 h after TBI; TBI group vs control and TBI+JM-20 groups, p<0.05; FIG. 6
Procedure: as §1
as §5, with “In addition, topical lidocaine was applied to the animals' head to minimize posttraumatic pain (MYCHASIUK, R. et al. A Novel Model of Mild Traumatic Brain Injury for Juvenile Rats. Journal of Visualized Experiments. 2014)” left out
The cerebral edema was determined measuring the water content of the brain using the wet-dry method described by Chen et al (2014) (CHEN, W. et al. Neuroprotective effect of allicin against traumatic brain injury via Akt/endothelial nitric oxide synthase pathway-mediated anti-inflammatory and anti-oxidative activities. Neurochemistry International. 68:28-37. 2014) Twenty-four hours after the TBI, the animals were sacrificed and their brains were rapidly removed and weighed to determine their wet weight. […] The water content of the brain was calculated using the following formula: […]

TBI-induced rats [3] = assay: Beam-walking test after weight-drop TBI; conditions: TBI group vs control and JM-20 (alone) groups, p<0.05; FIG. 5
Procedure: as §1
as §5, with “In addition, topical lidocaine was applied to the animals' head to minimize posttraumatic pain (MYCHASIUK, R. et al. A Novel Model of Mild Traumatic Brain Injury for Juvenile Rats. Journal of Visualized Experiments. 2014)” left out
The beam-walking test (HAUSSER, N. et al. Detecting Behavioral Deficits in Rats After Traumatic Brain Injury. J. Vis. Exp. (131), e56044, doi:10.3791/56044. 2018.) consists in animals walking on a hanging wooden beam (2.5 cm wide and 100 cm long) to reach a black wooden box placed at the end of the apparatus. […] Three attempts were analyzed. […] The day of the test, the times of each attempt were recorded and their values were averaged.

iba-1 = assay: Western blotting of iba-1 in brain tissue; conditions: TBI group vs control, JM-20 and TBI+JM-20, p<0.01, FIG. 9
Procedure: as §1, §2, §3, §4

TBI-induced rats [4] = assay: Rotarod test after weight-drop TBI; conditions: TBI group vs control, JM-20 and TBI+JM-20 groups, p<0.05; FIG. 1
Procedure: as §1, §5
Animals were trained for 5 minutes before the TBI so they could adapt to the apparatus. The testing session comprised 5 trials and concluded when animals fell off the rotor (3.7 cm diameter, velocity 25-30 rpm) or after the cutoff time, i.e. 300 s. (Whishaw et al., 2003). The first fall latency was analyzed.

## CCOC(=O)C1=C(C)NC2=C(C=Nc3ccccc3N2)C1c1ccccc1[N+](=O)[O-] (centres unmarked) [JM-20, 3-ethoxycarbonyl-2-methyl-4-(2-nitrophenyl)-4,11-dihydro-1H-pyridol[2,3-b][1,5]benzodiazepine]
p-Akt
  p-Akt expression in hippocampus: decreased in TBI groups
GFAP
  GFAP expression: showed no changes in any of the groups
TBI
  effect on TBI adverse effects (behavioral, morphological and biochemical changes): effective in reducing and, in some cases, reversing TBI adverse effects
TBI-induced rats [1]
  number of rearings during the open field test: a higher number of rearings was observed in comparison with the control and the TBI+JM-20 group
TBI-induced rats [2]
  brain water content: increased in the TBI group in contrast with the control and TBI +JM-20 groups
TBI-induced rats [3]
  time to complete the beam-walk test: rats in the TBI group took longer to complete the course than the control and JM-20 groups
iba-1
  iba-1 expression in cerebral cortex: increased in TBI groups, both in the cerebral cortex in comparison with all the groups
TBI-induced rats [4]
  first fall latency time on the rotarod test: animals who suffered a TBI showed a reduction of the first fall latency time on the rotarod test in contrast with the other groups
